According to patent US20250230193A1, “CYCLIC COMPOUND HAVING SELECTIVE KRAS INHIBITORY EFFECT ON HRAS AND NRAS” (CHUGAI SEIYAKU KABUSHIKI KAISHA, priority 2022, published 2025):
*1 amine or outer side, *2 acyl side, *3 side chain or, on linkers, in order; H or OH if unused. Where a SMILES comes first, the peptide text is derived from it. Bridges are numbered along the chain shown (N, C = ends). [ ]: non-standard residue; d: D form. The star is where a group is joined. X24 = O=C([C@H](Cc1ccc(C(F)(F)F)cc1)N(CCC(F)(F)F)[*:1])[*:2]; hPhe(3-Cl-4-CF3) = N[C@@H](CCc1ccc(C(F)(F)F)c(Cl)c1)C(=O)O; NPrPhe(4-CF3) = CCCN[C@@H](Cc1ccc(C(F)(F)F)cc1)C(=O)O; NMeGly(cPent) = CN[C@H](C(=O)O)C1CCCC1; NMeD = CN[C@@H](CC(=O)O)C(=O)O; NMeL = CN[C@@H](CC(C)C)C(=O)O; hPip = O=C(O)[C@@H]1CCCCCN1; Morpholide = C1CN(*)CCO1; Ac5c = NC1(C(=O)O)CCCC1; NEtG = CCNCC(=O)O; Sar = CNCC(=O)O

Columns and labels:
[1] = target: GDP-bound HRAS wild-type protein (Homo sapiens, UniProt P01112); test: Binding to HRAS by surface plasmon resonance (SPR), Single Cycle Kinetics; settings: SPR
Sequence of GDP-bound HRAS wild-type protein (P01112 whole entry): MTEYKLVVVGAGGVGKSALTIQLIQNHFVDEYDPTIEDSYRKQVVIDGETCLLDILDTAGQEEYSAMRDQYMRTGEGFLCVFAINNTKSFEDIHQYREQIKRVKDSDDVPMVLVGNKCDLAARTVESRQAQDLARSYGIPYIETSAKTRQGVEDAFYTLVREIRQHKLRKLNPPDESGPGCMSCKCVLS

[2] = target: GDP-bound NRAS wild-type protein (Homo sapiens, UniProt P01111); test: Binding to NRAS by surface plasmon resonance (SPR), Single Cycle Kinetics; settings: SPR
Sequence of GDP-bound NRAS wild-type protein (P01111 whole entry): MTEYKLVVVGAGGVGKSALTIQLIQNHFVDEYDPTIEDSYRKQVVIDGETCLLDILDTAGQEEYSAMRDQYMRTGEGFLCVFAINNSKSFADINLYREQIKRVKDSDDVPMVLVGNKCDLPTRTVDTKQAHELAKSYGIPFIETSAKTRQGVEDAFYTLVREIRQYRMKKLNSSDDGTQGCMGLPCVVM

[3] = KD ratio, GDP-bound HRAS wild-type vs GDP-bound KRAS wild-type
[4] = KD ratio, GDP-bound NRAS wild-type vs GDP-bound KRAS wild-type
[5] = GDP-bound HRAS wild-type vs GDP-bound KRAS wild-type
[6] = GDP-bound NRAS wild-type vs GDP-bound KRAS wild-type

For `CC[C@H](C)[C@@H]1NC(=O)[C@H](CC(C)C)N(C)C(=O)C[C@@H](C(=O)N2CCOCC2)N(C)C(=O)[C@H](C2CCCC2)N(C)C(=O)C2(CCCC2)NC(=O)[C@@H]2CCCN2C(=O)[C@H](CCc2ccc(C(F)(F)F)c(Cl)c2)NC(=O)CN(C)C(=O)[C@H](Cc2ccc(C(F)(F)F)cc2)N(CCC(F)(F)F)C(=O)CN(C)C(=O)CN(C)C1=O` [PP0131] ([NMeL]I[Sar][Sar][X24][Sar][hPhe(3-Cl-4-CF3)]P[Ac5c][NMeGly(cPent)][NMeD]-Morpholide; lactam N-11), the “HRAS/KRAS (ratio of KD for GDP-bound HRAS wild-type to KD for KRAS)” value [1] was “C (A compound having a KD ratio of 0.1 or more and less than 3 is denoted as C)” and the “NRAS/KRAS (ratio of KD for GDP-bound NRAS wild-type to KD for KRAS)” value [2] was “B (a compound having 3 or more and less than 10 is denoted as B)”.

With `CCCN1C(=O)CN(C)C(=O)CN(CC)C(=O)[C@H]([C@@H](C)CC)NC(=O)[C@@H]2CCCCCN2C(=O)C[C@@H](C(=O)N2CCOCC2)N(C)C(=O)[C@H](C2CCCC2)N(C)C(=O)C2(CCCC2)NC(=O)[C@@H]2CCCN2C(=O)[C@H](CCc2ccc(C(F)(F)F)c(Cl)c2)NC(=O)CN(C)C(=O)[C@@H]1Cc1ccc(C(F)(F)F)cc1` [PP0289] ([hPip]I[NEtG][Sar][NPrPhe(4-CF3)][Sar][hPhe(3-Cl-4-CF3)]P[Ac5c][NMeGly(cPent)][NMeD]-Morpholide; lactam N-11) the “HRAS/KRAS (ratio of KD for GDP-bound HRAS wild-type to KD for KRAS)” value [1] was “B (a compound having 3 or more and less than 10 is denoted as B)” and the “NRAS/KRAS (ratio of KD for GDP-bound NRAS wild-type to KD for KRAS)” value [2] was “B (a compound having 3 or more and less than 10 is denoted as B)”.

`CC[C@H](C)[C@@H]1NC(=O)[C@H](CC(C)C)N(C)C(=O)C[C@@H](C(=O)N2CCOCC2)N(C)C(=O)[C@H](C2CCCC2)N(C)C(=O)C2(CCC2)NC(=O)[C@]2(C)CCCN2C(=O)[C@H](CCc2cc(F)c(C(F)(F)F)c(F)c2)NC(=O)CN(C)C(=O)[C@H](Cc2ccc(C(F)(F)F)cc2)N2CCCCC[C@@H](C2=O)N(C)C(=O)CN(C)C1=O` [PP0817] was tested, and the “HRAS/KRAS (ratio of KD value with respect to HRAS to KD value with respect to KRAS)” value [1, 3] was “B (a compound having 3 or more and less than 10 is denoted as B)” and the “NRAS/KRAS (ratio of KD value with respect to NRAS to KD value with respect to KRAS)” value [2, 4] was “A (a compound having 10 or more and less than 20 is denoted as A)”.

`CCO[C@@H]1C[C@H]2C(=O)NC3(CC(C)(C)C3)C(=O)N(C)[C@@H](C3CCCC3)C(=O)N(C)[C@H](C(=O)N(C)CC)CC(=O)N(C)[C@@H](C3CC3)C(=O)N[C@@H]([C@@H](C)CC)C(=O)N(C)CC(=O)N(C)[C@H]3C/C=C\CCN(C3=O)[C@@H](Cc3ccc(C(F)(F)F)cc3)C(=O)N(C)CC(=O)N[C@@H](CCc3ccc(C(F)(F)F)c(OC)c3)C(=O)N2C1` [PP1981] was tested, and the “HRAS/KRAS (ratio of KD value for HRAS to KD value for KRAS)” value [1, 3] was “A (a compound having 10 or more and less than 20 is denoted as A)” and the “NRAS/KRAS (ratio of KD value for NRAS to KD value for KRAS)” value [2, 4] was “A (a compound having 10 or more and less than 20 is denoted as A)”.

`CCO[C@@H]1C[C@H]2C(=O)NC3(CCC3)C(=O)N(C)[C@@H](C3CCCC3)C(=O)N(C)[C@H](C(=O)N(C)C)CC(=O)N(C)[C@@H](CC)C(=O)N[C@@H]([C@@H](C)CC)C(=O)N(C)CC(=O)N(C)[C@H]3CCCCN(C3=O)[C@@H](Cc3ccc(C(F)(F)F)cc3)C(=O)N(C)CC(=O)N[C@@H](CCc3ccc4sccc4c3)C(=O)N2C1` [PP0887] was tested, and the “HRAS/KRAS (ratio of KD value with respect to HRAS to KD value with respect to KRAS)” value [1, 3] was “C (A compound having a KD ratio of 0.1 or more and less than 3 is denoted as C)” and the “NRAS/KRAS (ratio of KD value with respect to NRAS to KD value with respect to KRAS)” value [2, 4] was “C (A compound having a KD ratio of 0.1 or more and less than 3 is denoted as C)”.

For `CCCOC[C@H]1C(=O)N[C@@H]([C@@H](C)CC)C(=O)N(C)CC(=O)N(C)[C@H]2C/C=C\CCN(C2=O)[C@@H](CC2CCC(F)(F)CC2)C(=O)N(C)CC(=O)N[C@@H](CCc2ccc(C(F)(F)F)c(Cl)c2)C(=O)N2C[C@H](OCC)C[C@H]2C(=O)NC2(CC(C)(C)C2)C(=O)N(C)[C@@H](C(CC)CC)C(=O)N(C)[C@H](C(=O)N(C)C)CC(=O)N1C` [PP2484], the “HRAS/KRAS (ratio of KD value with respect to HRAS to KD value with respect to KRAS)” value [1, 5] was “A (a compound having 10 or more and less than 20 is denoted as A)” and the “NRAS/KRAS (ratio of KD value with respect to NRAS to KD value with respect to KRAS)” value [2, 6] was “A (a compound having 10 or more and less than 20 is denoted as A)”.

`CCO[C@@H]1C[C@H]2C(=O)NC3(CC(C)(C)C3)C(=O)N(C)[C@@H](C3CCCC3)C(=O)N(C)[C@H](C(=O)N(C)CC)CC(=O)N(C)[C@@H](COC)C(=O)N[C@@H]([C@@H](C)CC)C(=O)N(C)CC(=O)N(C)[C@H]3C/C=C\CCN(C3=O)[C@@H](Cc3ccc(C)cc3)C(=O)N(C)CC(=O)N[C@@H](CCc3cc(F)c(C(F)(F)F)c(F)c3)C(=O)N2C1` [PP2396] was tested, and the “HRAS/KRAS (ratio of KD value with respect to HRAS to KD value with respect to KRAS)” value [1, 5] was “A (a compound having 10 or more and less than 20 is denoted as A)” and the “NRAS/KRAS (ratio of KD value with respect to NRAS to KD value with respect to KRAS)” value [2, 6] was “A (a compound having 10 or more and less than 20 is denoted as A)”.
